For one series, the target named is T1, AHR (UniProt P35869).
T1 construct: IC50
T1 sequence (P35869 1-848): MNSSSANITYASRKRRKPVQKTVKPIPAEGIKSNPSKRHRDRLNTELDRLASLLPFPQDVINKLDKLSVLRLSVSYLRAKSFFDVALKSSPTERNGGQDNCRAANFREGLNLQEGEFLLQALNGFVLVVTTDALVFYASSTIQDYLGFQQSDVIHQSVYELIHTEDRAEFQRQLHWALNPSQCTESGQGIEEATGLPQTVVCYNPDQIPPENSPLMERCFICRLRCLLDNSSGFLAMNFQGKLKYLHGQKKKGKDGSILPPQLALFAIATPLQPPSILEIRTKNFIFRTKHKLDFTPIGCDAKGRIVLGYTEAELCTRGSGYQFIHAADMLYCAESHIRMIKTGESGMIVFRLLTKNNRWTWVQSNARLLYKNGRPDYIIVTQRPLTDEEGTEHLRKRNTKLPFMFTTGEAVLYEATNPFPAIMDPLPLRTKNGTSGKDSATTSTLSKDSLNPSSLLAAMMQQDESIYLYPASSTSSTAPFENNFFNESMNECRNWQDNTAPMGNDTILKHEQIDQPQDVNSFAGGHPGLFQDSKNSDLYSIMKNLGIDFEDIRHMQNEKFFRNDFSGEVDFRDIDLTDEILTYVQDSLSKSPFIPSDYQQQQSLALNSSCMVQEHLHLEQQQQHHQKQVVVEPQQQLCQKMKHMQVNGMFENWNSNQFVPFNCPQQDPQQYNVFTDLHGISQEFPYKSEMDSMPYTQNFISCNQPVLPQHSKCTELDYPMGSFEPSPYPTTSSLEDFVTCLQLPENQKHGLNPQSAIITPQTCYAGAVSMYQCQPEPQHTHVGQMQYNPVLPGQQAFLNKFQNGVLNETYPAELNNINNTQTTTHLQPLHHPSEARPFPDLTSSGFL
In words: DRE-Luciferase Reporter Assay (Alternate Method) (Example 1B). To be noted: cell line and AHR activating ligand not specified. The format is cell-based, murine or human. A general note: Reporter assays use an easily measured gene product as a stand-in for the process of interest.

Series [1] in a line: In Vitro Mouse liver S9 Metabolic Stability Assay (Example 1D). The format is in vitro ADME. The conditions noted are these: CD-1 mouse liver S9, 1 μM compound, 1 mg/mL S9 protein, 37° C., NADPH regenerating system, UDPGA, PAPS. On the procedure: CD-1 mouse liver S9 were purchased from Corning or XenoTech LLC or BioreclamationIVT, LLC or WuXi prepared. The cells were stored at −80° C. in a freezer before use. β-Nicotinamide adenine dinucleotide phosphate (NADP), Glucose 6-phosphate (G6P), Glucose 6-phosphate dehydrogenase from yeast (G6PDH), Uridine 5′-diphophoglucuronic acid trisodium salt (UDPGA) and Adenosine 3′-phosphate 5′-phosphosulfate lithium salt hydrate (PAPS) were available commercially from Sigma.
Compounds were diluted in DMSO to make 10 mM stock solution. 5 μL of this stock solution (10 mM, DMSO) was diluted with 45 μL DMSO and 450 μL 50% Methanol/Water to make intermediate stock solution (100 μM, 45% MeOH, 10% DMSO). 50 μL of intermediate stock solution was diluted with 450 μL 100 mM phosphate buffer to make a final stock solution (10 μM, 4.5% MeOH, 1% DMSO). 10 uL of final stock solution was added to 90 uL liver S9 system (final concentration of 1 μM, 0.45% MeOH, 0.1% DMSO).
Test compounds were incubated at 37° C. with liver S9 (pooled from multiple donors) at 1 μM in the presence of a NADPH regenerating system, UDPGA, and PAPS at 1 mg/mL S9 protein. Time samples (0 and 60 minutes) were removed and immediately mixed with cold acetonitrile containing internal standard (IS). Samples were analyzed by LC/MS/MS and disappearance of test compounds were assessed based on peak area ratios of analyte /IS (no standard curve). All samples were injected and analyzed using LC-MS/MS. The analyte/internal standard peak area ratios were converted to percentage remaining (% Remaining) with the following equation: % Remaining at 60 min=(Peak area ratio of analyte to IS at 60 min/Peak area ratio of analyte to IS at t=0)×100%. Table 5. Mouse Stability Data According to Example 1D.

SMILES strings stand for the structures. A value given as a limit tells only on which side of the number the result lay.

Broadly, the IC50 is the concentration needed to halve the response being measured. For `Fc1cncc(-c2nc(N[C@@H]3CCc4[nH]c5ccccc5c4C3)n3nccc3n2)c1` [I-165, (3R)—N-[2-(5-Fluoro-3-pyridyl)pyrazolo[1,5-a][1,3,5]triazin-4-yl]-2,3,4,9-tetrahydro-1H-carbazol-3-amine], at AHR, the IC50 is under 500 nM. Besides, the “Mouse S9 Stability: % Remaining After 60 Minutes” value in series [1] was found to be 3%.

For the molecule `CC(C)c1cnc2c(N[C@@H]3CCc4[nH]c5ccccc5c4C3)nc(-c3cncc(F)c3)cn12` [I-30, (3R)—N-[6-(5-Fluoro-3-pyridyl)-3-isopropyl-imidazo[1,2-a]pyrazin-8-yl]-2,3,4,9-tetrahydro-1H-carbazol-3-amine], the IC50 against AHR was under 500 nM. In addition, the “Mouse S9 Stability: % Remaining After 60 Minutes” value in series [1] was 11%.

Turning to `CC(C)(O)c1cnn2c(NCCc3c[nH]c4ccccc34)cc(-c3cncc(F)c3)nc12` [I-177, 2-[5-(5-Fluoro-3-pyridyl)-7-[2-(1H-indol-3-yl)ethylamino]pyrazolo[1,5-a]pyrimidin-3-yl]propan-2-ol], the IC50 on AHR is under 500 nM. Further, the “Mouse S9 Stability: % Remaining After 60 Minutes” value in series [1] came out at 2%.

The molecule `CN1CCN(C(=O)c2cnn3c(NCCc4c[nH]c5ccccc45)cc(-c4cncc(F)c4)nc23)CC1` [I-68, [5-(5-Fluoro-3-pyridyl)-7-[2-(1H-indol-3-yl)ethylamino]pyrazolo[1,5-a]pyrimidin-3-yl]-(4-methylpiperazin-1-yl)methanone] gave an IC50 on AHR of 500 to 1000 nM. Also, the “Mouse S9 Stability: % Remaining After 60 Minutes” value in series [1] was found to be 4%.

At AHR, `Cc1[nH]c2c(F)cccc2c1CCNc1cc(-c2cncc(F)c2)nc2c(C)cnn12` [I-224, N-[2-(7-fluoro-2-methyl-1H-indol-3-yl)ethyl]-5-(5-fluoro-3-pyridyl)-3-methyl-pyrazolo[1,5-a]pyrimidin-7-amine] returned an IC50 of under 500 nM. In addition, the “Mouse S9 Stability: % Remaining After 60 Minutes” value in series [1] worked out at 0%.

Take `Fc1cncc(-c2nc(N[C@@H]3CCc4[nH]c5ccccc5c4C3)cc(N3CCCC3)n2)c1` [I-36, (3R)—N-[2-(5-Fluoro-3-pyridyl)-6-pyrrolidin-1-yl-pyrimidin-4-yl]-2,3,4,9-tetrahydro-1H-carbazol-3-amine]: at AHR, the IC50 was over 1500 nM. Further, the “Mouse S9 Stability: % Remaining After 60 Minutes” value in series [1] stood at 29%.

For `Cc1cnn2c(NCCc3cc[nH]c3)cc(-c3cncc(F)c3)nc12` [I-196, 5-(5-Fluoro-3-pyridyl)-3-methyl-N-[2-(1H-pyrrol-3-yl)ethyl]pyrazolo[1,5-a]pyrimidin-7-amine], the IC50 at AHR was under 500 nM. Also, the “Mouse S9 Stability: % Remaining After 60 Minutes” value in series [1] is 0%.

For the molecule `Cc1cnn2c(NCCc3c[nH]c4ccccc34)nc(-c3cncc(F)c3)nc12` [I-164, 2-(5-Fluoro-3-pyridyl)-N-[2-(1H-indol-3-yl)ethyl]-8-methyl-pyrazolo[1,5-a][1,3,5]triazin-4-amine], at AHR, the IC50 was under 500 nM. In series [1], the “Mouse S9 Stability: % Remaining After 60 Minutes” value turned out to be 0%.

In turn, `CC(C)c1cnn2c(NCCc3c[nH]c4ccccc34)cc(-c3cncc(C#N)c3)nc12` [I-81, 5-[7-[2-(1H-indol-3-yl)ethylamino]-3-isopropyl-pyrazolo[1,5-a]pyrimidin-5-yl]pyridine-3-carbonitrile] had an IC50 on AHR of under 500 nM. In series [1], the “Mouse S9 Stability: % Remaining After 60 Minutes” value is reported as 2%.

At AHR, `CC(C)c1cnn2c(NCCc3cc[nH]c3)nc(-c3cncc(F)c3)nc12` [I-166, 2-(5-Fluoro-3-pyridyl)-8-isopropyl-N-[2-(1H-pyrrol-3-yl)ethyl]pyrazolo[1,5-a][1,3,5]triazin-4-amine] registered an IC50 of under 500 nM. The “Mouse S9 Stability: % Remaining After 60 Minutes” value in series [1] is recorded as 4%.

The molecule `CC(C)Oc1cc(-c2cncc(F)c2)nc(NCCc2c[nH]c3ccccc23)n1` [I-72, 4-(5-Fluoro-3-pyridyl)-N-[2-(1H-indol-3-yl)ethyl]-6-isopropoxy-pyrimidin-2-amine] came in with an IC50 against AHR of under 500 nM. Moreover, the “Mouse S9 Stability: % Remaining After 60 Minutes” value in series [1] was 3%.

At AHR, `CC(C)c1cnc2c(NCCc3c[nH]c4ccccc34)nc(-c3cncc(F)c3)cn12` [I-106, 6-(5-Fluoro-3-pyridyl)-N-[2-(1H-indol-3-yl)ethyl]-3-isopropyl-imidazo[1,2-a]pyrazin-8-amine] came in with an IC50 of under 500 nM. For the same molecule, the “Mouse S9 Stability: % Remaining After 60 Minutes” value in series [1] is 1%.

Molecule `Fc1cncc(-c2nc(NCCc3c[nH]c4ccccc34)cc(N3CCCC3)n2)c1` [I-105, 2-(5-Fluoro-3-pyridyl)-N-[2-(1H-indol-3-yl)ethyl]-6-pyrrolidin-1-yl-pyrimidin-4-amine] displayed an IC50 at AHR of under 500 nM. Further, the “Mouse S9 Stability: % Remaining After 60 Minutes” value in series [1] came out at 8%.

For `CC(C)c1ccc2c(N[C@@H]3CCc4[nH]c5ccccc5c4C3)nc(-c3cncc(F)c3)nn12` [I-156], on AHR, the IC50 was over 1500 nM. Moreover, in series [1], the “Mouse S9 Stability: % Remaining After 60 Minutes” value is 28%.

The molecule `CC(C)c1cnn2c(NCCc3c[nH]c4ccccc34)nc(-c3cncc(F)c3)nc12` [I-16, 2-(5-Fluoro-3-pyridyl)-N-[2-(1H-indol-3-yl)ethyl]-8-isopropyl-pyrazolo[1,5-a][1,3,5]triazin-4-amine] gave an IC50 at AHR of under 500 nM. The “Mouse S9 Stability: % Remaining After 60 Minutes” value in series [1] was 2%.

In the case of `Cc1[nH]c2c(F)cccc2c1CCNc1nc(-c2cncc(F)c2)nc2c(C)cnn12` [I-202, N-[2-(7-Fluoro-2-methyl-1H-indol-3-yl)ethyl]-2-(5-fluoro-3-pyridyl)-8-methyl-pyrazolo[1,5-a][1,3,5]triazin-4-amine], at AHR, the IC50 was under 500 nM. Moreover, the “Mouse S9 Stability: % Remaining After 60 Minutes” value in series [1] is on record as 0%.

Consider `Fc1cncc(-c2cc(NCCc3c[nH]c4cccnc34)n3nccc3n2)c1` [I-208, 5-(5-Fluoro-3-pyridyl)-N-[2-(1H-pyrrolo[3,2-b]pyridin-3-yl)ethyl]pyrazolo[1,5-a]pyrimidin-7-amine], for which, on AHR, the IC50 was over 1500 nM. In addition, the “Mouse S9 Stability: % Remaining After 60 Minutes” value in series [1] is 0%.

For `NC(=O)c1cnn2c(NCCc3c[nH]c4ccccc34)cc(-c3cncc(F)c3)nc12` [I-78, 5-(5-Fluoro-3-pyridyl)-7-[2-(1H-indol-3-yl)ethylamino]pyrazolo[1,5-a]pyrimidine-3-carboxamide], at AHR, the IC50 is under 500 nM. For the same molecule, in series [1], the “Mouse S9 Stability: % Remaining After 60 Minutes” value was 1%.

As for `CC(C)n1cnc2c(N[C@@H]3CCc4[nH]c5ccccc5c4C3)nc(-c3cncc(F)c3)nc21` [I-162, (3R)—N-[2-(5-Fluoro-3-pyridyl)-9-isopropyl-purin-6-yl]-2,3,4,9-tetrahydro-1H-carbazol-3-amine], the IC50 against AHR was under 500 nM. In series [1], the “Mouse S9 Stability: % Remaining After 60 Minutes” value was 54%.

With `CC(C)c1cnn2c(NCCc3c[nH]c4cccnc34)nc(-c3cncc(F)c3)nc12` [I-101, 2-(5-Fluoro-3-pyridyl)-8-isopropyl-N-[2-(1H-pyrrolo[3,2-b]pyridin-3-yl)ethyl]pyrazolo[1,5-a][1,3,5]triazin-4-amine], the IC50 at AHR is under 500 nM. For the same molecule, in series [1], the “Mouse S9 Stability: % Remaining After 60 Minutes” value amounted to 1%.

With `CC(C)Oc1cc(NCCc2c[nH]c3ccccc23)nc(-c2cncc(F)c2)n1` [I-21, 2-(5-Fluoro-3-pyridyl)-N-[2-(1H-indol-3-yl)ethyl]-6-isopropoxy-pyrimidin-4-amine], the IC50 on AHR was under 500 nM. For the same molecule, the “Mouse S9 Stability: % Remaining After 60 Minutes” value in series [1] is recorded as 26%.

The molecule `CON(C)C(=O)c1cnn2c(NCCc3c[nH]c4ccccc34)cc(-c3cncc(F)c3)nc12` [I-92, 5-(5-Fluoro-3-pyridyl)-7-[2-(1H-indol-3-yl)ethylamino]-N-methoxy-N-methyl-pyrazolo[1,5-a]pyrimidine-3-carboxamide] came in with an IC50 at AHR of under 500 nM. In addition, the “Mouse S9 Stability: % Remaining After 60 Minutes” value in series [1] worked out at 0%.
